Test results from patent US20210000917A1, “METHODS AND COMPOSITION FOR THE TREATMENT OF ALLERGIC ASTHMA” (INSERM (Institut National de la Santé et de la Recherche …, priority 2018, published 2021).

B1: Der p 2.2: polypeptide consisting of the amino acid sequence 71 to 146 of SEQ ID NO: 1 (Der p 2 fragment) (protein, listed as Dermatophagoides pteronyssinus)
chain: IKASIDGLEVDVPGIDPNACHYMKCPLVKGQQYDIKYTWNVPKIAPKSENVVVTVKVMGDDGVLACAIATHAKIRD

What was measured:
[1] = system: Der p 2-specific IgE; assay: Der p 2-specific IgE level in mouse model of HDM-induced asthma; format: in vivo, BALB/c female mice; details: 20 μg peptide in Alum subcutaneously on day 30 and day 34; FIG. 1E serum level
Description: (§1) BALB/c female mice aged 6 to 8 weeks were purchased from Charles River Breeding Laboratories and used for all experiments. The animals were housed in UTE IRS-UN platform (Nantes, France). The mice were maintained under specific pathogen-free, temperature-controlled conditions under a strict 12-hour light-dark cycle and were given free access to food and water. The mice were sensitized on days 0, 7, 14 and 21 by percutaneous application of 500 μg of total extract of Dermatophagoïdes farinae (HDM) (Stallergenes, Antony, France) in 20 μl of dimethylsulfoxide (Sigma- Aldrich, St Louis, Mo.) on the ears without any synthetic adjuvant. The mice were challenged intranasally with 250 μg of HDM (House Dust Mite) in 40 μl of sterile PBS on day 27, 28 and 29 to induce asthma and again on days 35, 36 and 37 to induce asthma exacerbation. Animals were anesthetized with 100 μg of xylazine (ROMPUN 2%, Bayer, Lyon, France, 15 mg/kg) intraperitoneally and 100 μl of ketamine (IMALGENE100, Merial, Lyon, France, 80 mg/kg) for both sensitizations and challenges. Mice were sacrified by sublethal injection of dolethal (vetoquinol) on day 39 (FIG. 1A). For dynamic lung resistance measurements, mice were anesthetized with 200 μl of a ketamine-xylazine mix and paralyzed with 100 μl of rocuronium bromide (ESMERON, Organon, Kloosterstraat, The Netherlands, 10 mg/ml) intraperitoneally. […]

[2] = system: mouse model of HDM-induced asthma; assay: Treg and natural killer cells by flow cytometry in mouse model of HDM-induced asthma; format: in vivo, BALB/c female mice; details: 20 μg peptide in Alum subcutaneously on day 30 and day 34
Description: as §1, with “challenges.” for “challenges. Mice were sacrified by sublethal injection of dolethal (vetoquinol) on day 39 (FIG. 1A). For dynamic lung resistance measurements, mice were anesthetized with 200 μl of a ketamine-xylazine mix and paralyzed with 100 μl of rocuronium bromide (ESMERON, Organon, Kloosterstraat, The Netherlands, 10 mg/ml) intraperitoneally.”
For analysis of BAL cells, the following antibodies were used: CD3 PE-Cy7, F4/80 FITC (eBioscience); CCR3 APC (R&D Systems) and Ly6G-PerCP Cy5.5 (BD Biosciences). Stained cells resuspended in PBS were acquired on a BD LSR II (BD Biosciences) and were analyzed on FlowJo software (Tree Star). […]

[3] = cited from earlier work; for in vivo allergenic activity and allergenicity: compared with the Derp 2 allergen; for immunogenicity: in vivo
[4] = system: mouse model of HDM-induced asthma; assay: BAL cell counts by flow cytometry in mouse model of HDM-induced asthma; format: in vivo, BALB/c female mice; details: 20 μg peptide in Alum subcutaneously on day 30 and day 34, BAL day 38
Description: BALB/c female mice aged 6 to 8 weeks were purchased from Charles River Breeding Laboratories and used for all experiments. The animals were housed in UTE IRS-UN platform (Nantes, France). The mice were maintained under specific pathogen-free, temperature-controlled conditions under a strict 12-hour light-dark cycle and were given free access to food and water. The mice were sensitized on days 0, 7, 14 and 21 by percutaneous application of 500 μg of total extract of Dermatophagoïdes farinae (HDM) (Stallergenes, Antony, France) in 20 μl of dimethylsulfoxide (Sigma- Aldrich, St Louis, Mo.) on the ears without any synthetic adjuvant. The mice were challenged intranasally with 250 μg of HDM (House Dust Mite) in 40 μl of sterile PBS on day 27, 28 and 29 to induce asthma and again on days 35, 36 and 37 to induce asthma exacerbation. Animals were anesthetized with 100 μg of xylazine (ROMPUN 2%, Bayer, Lyon, France, 15 mg/kg) intraperitoneally and 100 μl of ketamine (IMALGENE100, Merial, Lyon, France, 80 mg/kg) for both sensitizations and challenges. […] For dynamic lung resistance measurements, mice were anesthetized with 200 μl of a ketamine-xylazine mix and paralyzed with 100 μl of rocuronium bromide (ESMERON, Organon, Kloosterstraat, The Netherlands, 10 mg/ml) intraperitoneally.
(§2) Derivative peptide (Derp 2.1) was purified as previously described by Chen et al. 1Peptide was injected on day 30 after de third challenge and on day 34 before the fourth challenge. Derp 2.1 was solubilized with sterile PBS to a final concentration of 100 μg/ml. pproximately 200 μl of a solution of Alum (Imject Alum, Thermo Scientific) containing 20 μg of the peptide was injected subcutaneously in the neck of the mice.
One milliliter of sterile PBS was administered to mice through a flexible catheter. Cells and supernatants from the removed fluid were separated by centrifugation. The total cell number was determined by using flow cytometry (see below). Supernatants were stored at −20° C.
For analysis of BAL cells, the following antibodies were used: CD3 PE-Cy7, F4/80 FITC (eBioscience); CCR3 APC (R&D Systems) and Ly6G-PerCP Cy5.5 (BD Biosciences). Stained cells resuspended in PBS were acquired on a BD LSR II (BD Biosciences) and were analyzed on FlowJo software (Tree Star). To study lung, mediastinal lymph nodes (mLN) and spleen T-cell responses, these organs were removed and mechanically disrupted in RPMI 1640 media. Cells were passed through a 40 μm filter. Red blood cells from lung and spleen were lysed with a solution of Red Blood Cells lysis (Sigma Aldrich). Cells from mLN, lung and spleen were transferred to a 96-wells round-bottom plate and were stimulated for 5 hours with a mix containing phorbol 12-myristate 13-acetate (50 ng/ml) and ionomycin (500 ng/ml; Sigma-Aldrich) together. […]

[5] = system: mouse model of HDM-induced asthma; assay: Airway hyperresponsiveness measurement (flexiVent, methacholine) in mouse model of HDM-induced asthma; format: in vivo, BALB/c female mice; details: for respiratory function (airway resistances and elastance to increasing doses of methacholine): 20 μg peptide in Alum subcutaneously on day 30 and day 34, measured day 38, vs asthmatic-like (HDM) mice
Description: BALB/c female mice aged 6 to 8 weeks were purchased from Charles River Breeding Laboratories and used for all experiments. The animals were housed in UTE IRS-UN platform (Nantes, France). The mice were maintained under specific pathogen-free, temperature-controlled conditions under a strict 12-hour light-dark cycle and were given free access to food and water. The mice were sensitized on days 0, 7, 14 and 21 by percutaneous application of 500 μg of total extract of Dermatophagoïdes farinae (HDM) (Stallergenes, Antony, France) in 20 μl of dimethylsulfoxide (Sigma- Aldrich, St Louis, Mo.) on the ears without any synthetic adjuvant. The mice were challenged intranasally with 250 μg of HDM (House Dust Mite) in 40 μl of sterile PBS on day 27, 28 and 29 to induce asthma and again on days 35, 36 and 37 to induce asthma exacerbation. Animals were anesthetized with 100 μg of xylazine (ROMPUN 2%, Bayer, Lyon, France, 15 mg/kg) intraperitoneally and 100 μl of ketamine (IMALGENE100, Merial, Lyon, France, 80 mg/kg) for both sensitizations and challenges. Mice were sacrified by […] injection of dolethal (vetoquinol) on day 39 (FIG. 1A). For dynamic lung resistance measurements, mice were anesthetized with 200 μl of a ketamine-xylazine mix and paralyzed with 100 μl of rocuronium bromide (ESMERON, Organon, Kloosterstraat, The Netherlands, 10 mg/ml) intraperitoneally.
as §2
Dynamic lung resistances were measured using a flexiVent (SCIREQ, Emka). Mice were anesthetized and connected via an endotracheal cannula to a flexiVent system. […] Airway resistances wee continuously monitored and recorded according to manufacturer's instructions.

Molecule	Derp2 specific IgE [1]	regulators lymphocytes T (Treg cells) ([2]; FIG. 1F frequency of lung Treg cells)	natural killer cells ([2]; FIG. 1G number of lung natural killer cells)	in vivo allergenic activity and allergenicity [3]	immunogenicity [3]	eosinophils in BAL [4]	neutrophils in BAL [4]	eosinophils in BAL ([4]; listed as derp2.1)	neutrophils in BAL ([4]; listed as derp2.1)	respiratory function (airway resistances and elastance to increasing doses of methacholine) [5]	respiratory function (airway resistances and elastance to increasing doses of methacholine) ([5]; listed as derp2.1)	airway hyperresponsiveness and asthma exacerbations ([5]; summary statement comparing Derp 2.1 with Der p 2.2)
Derp2.1: polypeptide having a sequence consisting of amino acids 18 to 70 of SEQ ID NO: 1 (Der p 2 fragment); rDer p 2.1 is the recombinant form from E. coli (DQVDVKDCANHEIKKVLVPGCHGSEPCIIHRGKPFQLEAVFEANQNTKTAKIE; listed as Dermatophagoides pteronyssinus)	reduction	increase	reduction	less in vivo allergenic activity and allergenicity than the Derp 2 allergen	preserved immunogenicity	reduced	reduced	reduction	reduction	improved	respiratory improvement	enables to decrease airway hyperresponsiveness and prevent asthma exacerbations
B1				less in vivo allergenic activity and allergenicity than the Derp 2 allergen	preserved immunogenicity							
